From patent publication US20100075894A1, “REDUCING ER STRESS IN THE TREATMENT OF OBESITY AND DIABETES” (HARVARD UNIVERSITY, priority 2004, published 2010) come the findings set out here.

“Also recorded” adds a separate entry of the source.

One assay deals with ER stress. Description: ER stress markers in animals, western blot after treatment with the compound. Format: in vivo. Particulars: for activation of JNK / phosphorylation of IRE-1α / phosphorylation of PERK: animals treated with the compound, western blot; for ER stress: overall statement. An excerpt:
(§1) For example, obesity increases the demand on the synthetic machinery of the cell in many secretory organ systems and is also associated with abnormalities in intracellular energy fluxes and nutrient availability. The present invention stems from the recognition that many of these diseases associated with obesity cause ER stress, particularly in peripheral tissues, and that ER stress is involved in triggering insulin resistance and type 2 diabetes, two sequelae of obesity. […] The agents useful in the treatment of these diseases include small molecules, proteins, nucleic acids, and any other chemical compounds known to reduce or prevent ER stress. These agents make act in any manner that reduces or prevents ER stress such as reducing the production of mutant or misfolded proteins, increasing the expression of ER chaperones, increasing the stability of proteins, boosting the processing capacity of the ER, etc. Particularly useful agents include chemical chaperones such as 4-phenyl butyrate (PBA), tauroursodeoxycholic acid (TUDCA), trimethylamine N-oxide (TMAO), glycerol, D2O, dimethylsufloxide, glycine betaine, methyl amines, and glycerophosphocholine. […] The agents may be administered in any manner known in the drug delivery art although preferably the agent is delivered orally or parenterally. Dose ranges for these agents depend on the agent being delivered as well as other factors but will typically be from 10 mg/kg/day to 10 g/kg/day.
A general note: A western blot detects proteins with antibodies after separation by electrophoresis.

Assay [1] relates to insulin receptor signaling. In words: insulin receptor signaling in animals after treatment. Format: in vivo. The following applies: for serine phosphorylation of Akt / tyrosine phosphorylation of insulin receptor, insulin substrate 1-IRS-1 and IRS-1: animals; for insulin (receptor) signaling: overall statement.
Text: as §1

In the next assay the test system is JNK. Description: JNK activity in liver tissue of obese mice after PBA. The assay is classed as in vivo, mouse. Particulars: FIG. 21.
The test system of assay [2] is ob/ob mice. Description: 4-PBA in ob/ob mice: blood glucose, insulin tolerance test. The following applies: for blood glucose levels / insulin sensitivity in vivo: ob/ob mice. The assay is classed as in vivo, mouse. Here is the method: A genetic (ob/ob) model of mouse obesity was used to analyze the effects of 4-phenyl butyrate (4-PBA) on insulin sensitivity and hyperglycemia. 10-12 weeks old, male, leptin deficient mice were obtained from Jackson Labs, acclimated by three times injection of PBS (3 times a day) for 4 days, and treated either with intraperitoneal injection of 4-PBA (1 g/kg/day in three divided doses) or phosphate buffer saline (PBS) (3 doses of 100 μl) for a period of 7 days. Fed blood glucose levels (mg/dl) at the 3rd and 7th days of trial (a). Insulin Tolerance Test (ITT) were performed on the 7th day after the first injection (b).
A genetic (ob/ob) model of mouse obesity was used to analyze the effects to 4-phenyl butyrate (4-PBA) on insulin sensitivity and hyperglycemia. 8-10 weeks old, male, leptin deficient mice were obtained from Jackson Labs, acclimated by PBS injection (2 times a day) for 4 days, and treated either with 4-PBA (500 mg/kg/day in two divided doses) or phosphate buffer saline (PBS) (2 doses of 200 μl) for a period of 20 days. Body weight during the treatment period (a). Blood glucose levels (mg/dl) after 6 hours of fasting at day 0 and day 20 (b). Insulin (ng/ml) levels at day 0 and day 20 (c). Insulin tolerance tests were performed at the 15th day of the treatment (d).
Animal Studies and Obesity Models: Adult (10-12 weeks of age) male ob/ob mice and their wild type (WT) littermates were purchased from Jackson Labs. Mice used in the diet-induced obesity model were male C57BL/6. All mice were placed on high fat diet (HFD: 35.5% fat, 20% protein, 32.7% carbohydrates, Bio-Serve) immediately after weaning (at ˜3 weeks of age). The XBP-1^+/− and XBP-1^+/+ mice were on Balb/C genetic background. Insulin and glucose tolerance tests were performed as previously described (Hirosumi et al., Nature 420:333 (2002); incorporated herein by reference). Insulin and C-peptide ELISA were performed according to manufacturer's instructions using mouse standards (Crystal Chem. Inc., Downers Grove, Ill.). Pancreas isolated from 16-week-old mice was fixed in Bouin's fluid and formalin, and paraffin sections were double-stained with guinea pig anti-insulin and rabbit anti-glucagon antibodies. Texas red dye conjugated donkey anti-guinea pig IgG and FITC conjugated Goat anti-rabbit IgG were used as secondary antibodies.

Assay [3] concerns ob/ob mice. In words: TMAO in ob/ob mice: fed blood glucose, serum insulin. The assay is classed as in vivo, mouse. Here is the method: Experiments were performed using the ob/ob genetic model of obesity and insulin resistance (C57BL/6J-Lep-ob mice purchased from Jackson Laboratory, Bar Harbor, Me.). At seven weeks of age, treatments were started after acclimatization for 5 days by administration of PBS. After this period, TMAO (Sigma, T0514) was dissolved in PBS and administered by intraperitoneal (IP) injection every 24 hours at a dose of 1 g/kg/day. At the indicated days, fed blood glucose levels were measured at 8:00 AM using an automated glucometer system. For insulin measurements, blood samples were collected after 6 hours of fasting and serum insulin levels were determined using a specific ELISA (Crystal Chem, 90060). Each treatment group contained at least six animals per experimental group.

The test system of assay [4] is ob/ob mice. In words: TUDCA in ob/ob mice: blood glucose, ITT. Format: in vivo, mouse. Here is the method:
9-10 weeks old ob/ob and their age and sex matched lean controls were used to analyze the effects of TUDCA on glucose metabolism and diabetes. After acclimation with PBS injection (once a day, 200 μl i.p. injection) for 4 days, mice were injected intraperitoneally with TUDCA (500 mg/kg once a day in 200 μl of PBS) (n=6 for lean and n=7 for ob/ob) and PBS (200 μl) (n=6 lean and n=7 for ob/ob). Blood glucose levels on the 4th, 7th, and 10th days after first injection (a). ITT on 10 days after the first injection (b).

For assay [5], the system named is ob/ob mice. In words: sodium 4-phenylbutyrate and metformin in ob/ob mice: fed blood glucose. Format: in vivo, mouse. Particulars: oral gavage daily, 200 mg/kg/day (each), fed state. Here is the method: Experiments are performed using the ob/ob genetic model of obesity and insulin resistance (C57B6. V-Lepob/OlaHsd mice were purchased from Harlan Teklad, Madison, Wis.). At seven weeks of age, treatments were started after acclimatization for 5 days by administration of PBS. After this period, PBS, sodium 4-phenylbutyrate (200 mg/kg/day), metformin (200 mg/kg/day), and sodium 4-phenylbutyrate plus metformin (200 mg/kg/day each) were administered into four separate experimental groups of mice (with at least six mice in each group) by oral gavage daily. […] Blood glucose levels were measured at the fed state at 8:00 AM.

Another assay relates to Fao liver cells. Description: ER stress inducers and insulin action in Fao liver cells. Format: cell-based, rat. Particulars: Fao cells, FIG. 12A. Here is the method:
(A) ER stress was induced in Fao liver cells by a 3-hour treatment with 5 μg/ml tunicamycin (Tun). Cells were subsequently stimulated with insulin (Ins). IRS-1 tyrosine and serine (Ser307) phosphorylation, Akt phosphorylation (Ser473), insulin receptor (IR) tyrosine phosphorylation, and their total protein levels were examined using either immunoprecipitation (IP) followed by immunoblotting (IB) or direct immunoblotting. (B) Quantitation of IRS-1 (tyrosine and Ser307), Akt (Ser473), and IR (tyrosine) phosphorylation under the experimental conditions described in (A) with normalization to protein levels for each molecule. (C) Inhibition of ER stress-induced (300 nM thapsigargin for 4 hours) Ser307 phosphorylation of IRS-1 by JNK-1 inhibitor, SP600125 (JNKi, 25 μM), (D) Quantitation of IRS-1 Ser307 phosphorylation under conditions described in (C). (E) Reversal of ER stress-induced inhibition of insulin-stimulated tyrosine phosphorylation (pY) of IRS-1 by a JNK inhibitor. (F) Quantitation of insulin-induced IRS-1 tyrosine phosphorylation levels described in (E). (G) JNK activity, Ser307 phosphorylation of IRS-1, and total IRS-1 levels at indicated times following tunicamycin treatment (Tun, 10 μg/ml for 1 hour) in IRE-1α^+/+ and IRE-1α^−/− fibroblasts. (H) Insulin-stimulated IRS-1 tyrosine phosphorylation and total IRS-1 levels following tunicamycin treatment (Tun, 10 μg/ml for 1 hour) in IRE-1α^+/+ and IRE-1α^−/− fibroblasts. […] All graphs show mean±SEM from at least 2 independent experiments and statistical significance from the controls is indicated by * with p<0.005.
(A) ER stress was induced in Fao cells by 1 hour treatment with 300 nM thapsigargin (Thap), and cells were subsequently stimulated with insulin (Ins). IRS-1 tyrosine phosphorylation (pY) and serine phosphorylation (pSer307), insulin receptor (IR) tyrosine phosphorylation, and total protein levels were examined using either immunoprecipitation (IP) followed by immunoblotting (IB) or direct immunoblotting. (B) Fao cells were treated with sulindac sulfide (SS: 0, 7.5, 30, and 60 μM) for 45 minutes with or without an additional hour of exposure to 300 nM thapsigargin (Thap). IRS-1 serine phosphorylation and total IRS-1 protein levels were examined as described above.
To investigate whether ER stress interferes with insulin action, we pretreated Fao liver cells with tunicamycin and thapsigargin, agents commonly used to induce ER stress. […] IRS-1 is a substrate for insulin receptor tyrosine kinase and serine phosphorylation of IRS-1, particularly mediated by JNK, reduces insulin receptor signaling (Hirosumi et al., Nature 420:333 (2002); incorporated herein by reference).
Cells: Rat Fao liver cells were cultured with RPMI 1640 (Gibco, Grand Island, N.Y.) containing 10% fetal bovine serum (FBS). […]

Setting [6] is: FIG. 7, animals with insulin resistance and type 2 diabetes, 1 g/kg/day IP.

`O=C(O)CCCc1ccccc1` [PBA, 4-phenyl butyric acid]: in the assay on ER stress, the “activation of JNK” value is recorded as “reduced”, the “phosphorylation of IRE-1α” value is listed as “reduced”, the “phosphorylation of PERK” value is listed as “reduced” and the ER stress result was “regulate ER stress in animals; also recorded: reduce ER stress”. Also, in assay [1], the “serine phosphorylation of Akt” value is “increased”; the “tyrosine phosphorylation of insulin receptor, insulin substrate 1-IRS-1 and IRS-1” value was “increased”; the “insulin (receptor) signaling” value is given as “regulate insulin receptor signaling”. In addition, the “JNK activity in liver tissue” value with JNK is “normalization of JNK activity”. Moreover, in the assay on ob/ob mice [2] (FIGS. 4 and 5), the blood glucose result is given as “effective in reducing blood glucose” and the insulin sensitivity entry was “increasing insulin sensitivity”. In addition, the blood glucose levels result in the assay on ob/ob mice [2] (oral route 500 mg/kg/day in two divided doses, 20 days) is recorded as “lowers blood glucose levels”. Besides, the “insulin sensitivity in vivo” value with ob/ob mice [2] (oral route 500 mg/kg/day, ITT at 15th day) is “increases insulin sensitivity”. In the assay on ob/ob mice [2] (parenteral (intraperitoneal) 1 g/kg/day in three divided doses, 7 days), the blood glucose levels result is given as “lowers blood glucose levels”. Besides, the “insulin sensitivity in vivo” value in the assay on ob/ob mice [2] (parenteral (intraperitoneal) 1 g/kg/day, ITT on 7th day) was “increases insulin sensitivity”.

In the case of `C[C@H](CCC(=O)NCCS(=O)(=O)O)[C@H]1CC[C@H]2[C@@H]3[C@@H](O)C[C@@H]4C[C@H](O)CC[C@]4(C)[C@H]3CC[C@]12C` [TUDCA, tauroursodeoxycholic acid], in the assay on ER stress, the “activation of JNK” value is “reduced”, the “phosphorylation of IRE-1α” value was “reduced”, the “phosphorylation of PERK” value is “reduced” and the ER stress result is “regulate ER stress in animals; also recorded: reduce ER stress”. In addition, in assay [1], the “serine phosphorylation of Akt” value is reported as “increased”; the “tyrosine phosphorylation of insulin receptor, insulin substrate 1-IRS-1 and IRS-1” value is “increased”; the “insulin (receptor) signaling” value was “regulate insulin receptor signaling”. Besides, the insulin sensitivity entry with ob/ob mice [3] (FIG. 7) was “increase insulin sensitivity”. Moreover, the glucose levels entry with ob/ob mice [3] (setting [6]) is listed as “reduce blood glucose levels”. Besides, the diabetes result with ob/ob mice [4] (500 mg/kg once a day i.p.) is recorded as “reverses diabetes”. Besides, the blood glucose levels result in the assay with ob/ob mice [4] (FIG. 6, 500 mg/kg once a day i.p.) is recorded as “reduce blood glucose levels”. For the same molecule, the insulin sensitivity result in the assay on ob/ob mice [4] (FIG. 6, 500 mg/kg once a day i.p., 500 mg/kg) was “increases insulin sensitivity”.

With `CN(C)C(=N)N=C(N)N` [metformin], the blood glucose entry in the assay on ob/ob mice [5] was “did not have any effect on blood glucose”.

Take `O=C([O-])CCCc1ccccc1.[Na+]` [sodium 4-phenylbutyrate]: the blood glucose result with ob/ob mice [5] was “did not have any effect on blood glucose”.

As for `C/C=C(/C)C(=O)O[C@H]1C(C)=C2[C@H]([C@@H]1OC(=O)CCCCCCC)[C@@](C)(OC(C)=O)C[C@H](OC(=O)CCC)[C@@]1(O)[C@H]2OC(=O)[C@@]1(C)O` [thapsigargin], the “insulin receptor signaling (as for tunicamycin)” value in the assay with Fao liver cells is recorded as “Similar, results were also obtained”.

trimethylamine N-oxide [TMAO]: the ER stress entry in the assay with ER stress is reported as “reduce ER stress”. For the same molecule, in the assay on ob/ob mice [3] (setting [6]), the glucose levels entry is reported as “lowering”. The anti-diabetic effect entry with ob/ob mice [3] (FIG. 7, ob/ob mice, 1 g/kg/day IP) is on record as “act as an anti-diabetic agent in vivo; also recorded: anti-diabetic effect”. In addition, in the assay with ob/ob mice [3] (animals with insulin resistance and type 2 diabetes, 1 g/kg/day IP), the insulin levels entry is on record as “lowering”.
